Measured values: patent US20240366611A1, “METHODS OF TREATING A DISEASE OR DISORDER” (Ascentage Pharma (Suzhou) Co., Ltd., priority 2021, published 2024)

Key:
[1] = tested on: CD4+CD45RBhigh T-cell transfer-induced IBD in CB17 mice; assay: T cell transfer induced inflammatory bowel disease (IBD) model; assay type: in vivo; settings: 90 mg/kg po qd day 14 to day 41
Excerpt: Female CB17 mice (8 weeks old) were obtained from Zhejiang Vital River Laboratory Animal Co. Ltd. Animals were housed and handled in a temperature-controlled environment with a 12-h light/12-h dark cycle. A total of 30 mice were assigned to 3 groups by randomization based on body weight.
To generate T cell transfer induced colitis, 95 female Balb/c mice, aged 8-10 weeks, were used to prepare naive CD4^+CD45RB^high T and CD4^+CD45RB^low T cells. The mouse spleens were harvested in precooled DPBS, grinded into cell suspension and passed through a 70 μm cell filter after erythrocytes lysed by ACK. Cells were collected and counted by centrifugation. Then, CD4 positive T cells were isolated by using negative magnetic bead separation kit. CD4^+CD45RB^high naive T cells were selected by flow cytometry and used for model construction. 20 CB17 model mice were intraperitoneally injected with 5×10^5 naive CD4^+CD45RB^high T cells each on Day 0. 10 mice in negative control group were intraperitoneally injected with 5×10^5 CD4^+CD45RB^low T cells on Day 0.
Mice in Group 2 were treated with vehicle for 28 days (po, qd, from day 14 to day 41). Mice in Group 3 were treated with 90 mg/kg Cpd. 73 for 28 days (therapeutic regimen, po, qd, from day 14 to day 41). The protocols and procedures involving the care and use of animals were approved by the Institutional Animal Care and Use Committee (IACUC) at WuxiApptec (Shanghai, China).
Clinical signs of IBD were assessed every day based on the score of disease activity index (DAI) which was evaluated from two parameters using a scoring system from 0 to 4: stool consistency (0, normal stool; 1, soft but still formed stool; 2, soft and not formed stool; 3, very soft and wet stool; 4, watery diarrhea), and body weight loss (0, no body weight loos; 1, 1-5% body weight loss; 2, 6-10% body weight loss; 3, 11-20% body weight loss; 4, >20% body weight loss).
At the end of the study (day 42), the animals were euthanized, dissected and the entire colon was quickly removed and gently cleared of feces.
At the end of the study (day 42), all the animals were sacrificed by CO2. The colon was Swiss-rolled and fixed with neutralized PFA followed by H&E staining. After that, the pathologists from WuXi clinical pathological analysis platform, who were blinded to animal ID, reviewed the H&E staining and scored. The pathological scoring standards were as follows: crypt architecture (normal, 0; severe crypt distortion with loss of entire crypts, 3), degree of inflammatory cell infiltration (normal, 0; dense inflammatory infiltrate, 3), muscle thickening (normal, 0; marked muscle thickening present, 3), goblet cell depletion (absent, 0; present, 1) and crypt abscess (absent, 0; present, 1).

[2] = tested on: H3K27me3 in PBMC monocytes; assay: H3K27me3 level in PBMC monocytes (FACS, H3K27me3/H3 ratio); assay type: in vivo, CD-1 mice; settings: vs vehicle
Experimental: Female CD-1 mice (8 weeks old) were housed and handled in a temperature-controlled environment with a 12-h light/12-h dark cycle. A total of 25 mice were assigned to 5 groups by randomization based on body weight, followed by 5 days of treatment with vehicle (po, qd), 3 mg/kg Cpd. 73 (po, qd), 10 mg/kg Cpd. 73 (po, qd), 30 mg/kg Cpd. 73 (po, qd), or 90 mg/kg Cpd. 73 (po, qd). The protocols and procedures involving the care and use of animals were approved by the Institutional Animal Care and Use Committee (IACUC) of WuXiAppTec (Shanghai) Co., Ltd. (Shanghai, China).
Mice were euthanatized 4 hours post the last dose. Whole blood and bone marrow were collected. Bone marrow cells were flushed from femur and tibia with IMDM+/+ (IMDM, 10% heat inactivated FBS, 100 U/mL penicillin and 100 μg/mL streptomycin). Aggregate was removed by passing through 40 μm cell strainer. 5 mL DPBS was used to pellet the cells after centrifugation, and the cell number was counted. Whole blood was added with 1×RBC lysis buffer remove RBC (whole blood: 1×RBC lysis buffer=1:9), and mononuclear cells were collected by centrifugation. The cells were then washed with 1×DPBS for once and resuspended in 3 ml DPBS after centrifugation followed by cell number counting.
Bone marrow cells were stained with FITC-conjugated anti-mouse TER-119 antibody (Thermo Fisher, 11-5921-82) and eFluor 506-conjugated anti-mouse CD45 antibody (Thermo Fisher, 69-0451-82). TER-119+ cells were erythroid lineage cells. PBMC were stained with eFlour 450-conjugated anti-mouse CD11b antibody (Invitrogen, 48-0112-82), PerCP-eFluor710-conjugated anti-mouse CD3 antibody (Invitrogen, 46-0032-82), eFluor 506-conjugated anti-mouse CD45 antibody (Thermo Fisher, 69-0451-82). CD45+CD3−CD11b+ cells were monocytes from PBMC.
After washing, centrifugation and fixation, the cells were permeabilized and further incubated with antibodies of H3K27m3 (Tri-Methyl-Histone H3 (Lys27) (C36B11) Rabbit mAb (PE Conjugate), CST, 40724S) and H3 (Histone H3 (D1H2) XP® Rabbit mAb (Alexa Fluor®647 Conjugate), CST, 12230S), followed by FACS analysis to quantify the mean fluorescence intensity of target cells. The ratio between the fluorescence intensity of H3K27me3 and H3 were used to reflect the level of H3K27me3 in the cells.

Q: For `CC(C)N1Cc2cc(C(F)(F)F)ncc2-c2cnc(NCc3c(F)ccc4c3CCO4)n3cnc(c23)C1=O` [Cpd. 73, 12-(((5-fluoro-2,3-dihydrobenzofuran-4-yl)methyl)amino)-4-isopropyl-7-(trifluoromethyl)-4,5-dihydro-3H-2,4,8,11,12a-pentaazabenzo[4,5]cycloocta[1,2,3-cd]inden-3-one], which body weight loss [1] is on record?
A: improved

Q: And the colon length ([1]; day 42, vehicle 7.72±0.18 cm)?
A: 10.26±0.22 cm

Q: What about the “pathological score (H&E, colon)” value ([1]; day 42, vehicle 9.00±0.47) of the same compound?
A: 3.70±0.37

Q: And the colon weight ([1]; day 42, vehicle 439.10±25.46 mg)?
A: 323.40 ± 16.06 mg

Q: What about the DAI score ([1]; on day 42, vehicle 4.90±0.41) of the same compound?
A: 1.4±0.27

Q: What about the “percent of decrease of H3K27me3 level” value ([2]; 3 mg/kg po qd×5 days) of the same compound?
A: 17.9%

Q: And the “percent of decrease of H3K27me3 level” value ([2]; 10 mg/kg po qd×5 days)?
A: 40.5%

Q: And the “percent of decrease of H3K27me3 level” value ([2]; 30 mg/kg po qd×5 days)?
A: 8.8%

Q: And the “percent of decrease of H3K27me3 level” value ([2]; 90 mg/kg po qd×5 days)?
A: 41.2%
